For one data set, the system named is BK (polyoma). It is filed as cell-based, polyoma (BK) virus.
The next data set deals with Flu B. It counts as cell-based.
Another data set deals with Yellow Fever. It counts as cell-based.
The subject of another data set is HCMV. Description: In vitro antiviral screening (selectivity index), HCMV. It is filed as cell-based, herpes cytomegalovirus.
A further data set deals with VZV. The data set is described as follows: In vitro antiviral screening (selectivity index), VZV. It counts as cell-based, varicella-zoster virus.
In the next data set the test system is Dengue. The data set is described as follows: In vitro antiviral screening (selectivity index), Dengue. It is filed as cell-based.
In another data set the test system is Flu A. It is filed as cell-based.
A further data set deals with Punta Toro. It is filed as cell-based.
The subject of the next data set is HPV-11. The data set is described as follows: In vitro antiviral screening (selectivity index), HPV-11. It counts as cell-based. Conditions: human papillomavirus (HPV).
The next data set deals with Cowpox. It counts as cell-based.
In another data set the test system is Measles. Description: In vitro antiviral screening (selectivity index), Measles (NR assay). It counts as cell-based, measles virus.
The subject of the next data set is VEE. It counts as cell-based.
A further data set has as its system HSV-1. The data set is described as follows: In vitro antiviral screening (selectivity index), HSV-1. It is filed as cell-based, herpes simplex virus type 1.
The test system of the next data set is PIV. It is filed as cell-based.
The next data set has as its system Pichinde. It counts as cell-based.
The test system of the next data set is SARS. It is filed as cell-based.
The subject of a further data set is RV 2. It is filed as cell-based.
A further data set has as its system Vaccinia. It counts as cell-based.
Another data set relates to HSV-2. The data set is described as follows: In vitro antiviral screening (selectivity index), HSV-2. It is filed as cell-based, herpes simplex virus type 2.
For the next data set, the system named is Adeno. It counts as cell-based.
In the next data set the test system is Tacaribe. It is filed as cell-based.
The next data set has as its system RSV A. Description: In vitro antiviral screening (selectivity index), RSV A. It counts as cell-based.
The next data set deals with Rift Valley Fever. It counts as cell-based.
A further data set has as its system microtubule assembly. The settings on record: Bradley et al., Clin. Cancer Res. 2001; cited from earlier work.
Data set [1] concerns the target cellular DNA polymerase alpha (Homo sapiens, UniProt P09884). The settings on record: cited from earlier work.
The conditions of data set [2]: cited from earlier work.
Data set [3] deals with human immunodeficiency virus-specified reverse transcriptase (Human immunodeficiency virus type 1 group M subtype B, UniProt P04585). The settings on record: HIV reverse transcriptase; cited from earlier work.

SMILES strings stand for the structures. “And” between values parts separate entries of the source, which are not always exact repeats. Equal values may be shown once.

Sequence of cellular DNA polymerase alpha (P09884 whole entry): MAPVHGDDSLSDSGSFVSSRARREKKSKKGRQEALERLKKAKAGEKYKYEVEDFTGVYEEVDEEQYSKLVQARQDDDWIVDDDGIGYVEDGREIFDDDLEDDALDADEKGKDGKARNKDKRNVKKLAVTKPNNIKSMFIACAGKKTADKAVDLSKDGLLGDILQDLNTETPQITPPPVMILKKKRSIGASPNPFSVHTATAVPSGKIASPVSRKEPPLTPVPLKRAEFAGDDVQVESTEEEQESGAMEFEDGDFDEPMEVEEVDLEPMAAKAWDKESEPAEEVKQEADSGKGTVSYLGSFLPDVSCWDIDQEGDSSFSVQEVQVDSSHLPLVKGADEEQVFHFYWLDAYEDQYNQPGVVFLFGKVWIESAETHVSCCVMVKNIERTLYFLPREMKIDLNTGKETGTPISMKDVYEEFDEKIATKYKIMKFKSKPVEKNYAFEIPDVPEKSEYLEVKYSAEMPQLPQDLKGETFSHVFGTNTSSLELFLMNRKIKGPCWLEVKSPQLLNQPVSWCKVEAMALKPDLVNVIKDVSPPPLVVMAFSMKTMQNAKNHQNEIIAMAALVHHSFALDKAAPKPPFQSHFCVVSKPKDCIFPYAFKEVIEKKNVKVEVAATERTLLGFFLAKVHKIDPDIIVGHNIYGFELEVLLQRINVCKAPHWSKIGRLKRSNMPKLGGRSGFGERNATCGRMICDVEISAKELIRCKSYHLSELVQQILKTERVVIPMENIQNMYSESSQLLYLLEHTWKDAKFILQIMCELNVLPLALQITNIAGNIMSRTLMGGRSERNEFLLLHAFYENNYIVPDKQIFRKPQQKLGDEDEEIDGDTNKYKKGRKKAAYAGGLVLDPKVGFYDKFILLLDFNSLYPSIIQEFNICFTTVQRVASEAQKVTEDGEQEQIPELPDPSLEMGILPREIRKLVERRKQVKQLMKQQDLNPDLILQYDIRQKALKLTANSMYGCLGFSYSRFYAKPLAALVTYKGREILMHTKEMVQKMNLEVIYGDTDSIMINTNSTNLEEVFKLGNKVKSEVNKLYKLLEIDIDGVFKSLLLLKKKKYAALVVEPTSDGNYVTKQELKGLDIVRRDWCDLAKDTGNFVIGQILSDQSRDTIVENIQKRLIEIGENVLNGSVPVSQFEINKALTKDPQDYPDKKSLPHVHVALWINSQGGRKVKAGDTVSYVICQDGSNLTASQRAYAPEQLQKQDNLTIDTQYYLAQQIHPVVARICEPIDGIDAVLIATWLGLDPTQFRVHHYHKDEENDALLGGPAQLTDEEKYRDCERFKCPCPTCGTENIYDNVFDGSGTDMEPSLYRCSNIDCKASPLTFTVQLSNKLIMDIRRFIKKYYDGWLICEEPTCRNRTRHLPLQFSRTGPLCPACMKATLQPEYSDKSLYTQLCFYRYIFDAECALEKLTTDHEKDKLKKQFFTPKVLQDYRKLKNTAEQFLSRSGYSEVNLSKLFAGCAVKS

For `CCCCCCCC/C=C\CCCCCCCC(=O)NC1=NC=NC2C1N=CN2CCOCP(=O)([O-])[O-].[Na+].[Na+]` (stereo not drawn) [Formula III, PMEA-oleyl amide], the “SI (selectivity index)” value is given as over 213 in the data set with BK (polyoma); 1 in the data set on Flu B; 1 in the data set on Yellow Fever; 1 in the data set with HCMV; 1 in the data set with Dengue; 1 in the data set on Flu A. The “SI (selectivity index)” value is 1 in the data set with Punta Toro; 1 in the data set on Cowpox; over 20 in the data set with Measles (Measles (NR assay)); 1 in the data set with VEE; over 17.8 in the data set on HSV-1 (HSV-1 (1), first replicate); over 143 in the data set with HSV-1 (HSV-1 (2), second replicate). The “SI (selectivity index)” value in the data set on PIV is 1; in the data set with Pichinde, 1; with SARS, 1; with RV 2, 1; in the data set with Vaccinia, 1 and >2; with HSV-2 (HSV-2 (1), first replicate), over 8.5. In addition, the “SI (selectivity index)” value in the data set on HSV-2 (HSV-2 (2), second replicate) turned out to be 5.7; in the data set with Adeno, 1; with Tacaribe it was 2; with RSV A it was 1; in the data set on Rift Valley Fever, 1. In addition, the “antiviral activity / sensitivity of virus” value in the data set with BK (polyoma) is listed as “sensitive”; in the data set on VZV, “sensitive”; with HPV-11, “sensitive only to the compound of Formula III”; in the data set with Measles (measles virus, in vitro), “sensitive only to the compound of Formula III”; in the data set on HSV-1 (HSV-1, in vitro), “sensitive only to the compound of Formula III”; in the data set on HSV-2 (HSV-2, in vitro), “sensitive only to the compound of Formula III”.

For the molecule `CC/C=C\C/C=C\C/C=C\C/C=C\C/C=C\C/C=C/CCC(=O)O[C@@H](C(=O)O[C@H]1C[C@@]2(O)[C@@H](OC(=O)c3ccccc3)C3[C@](C)(C(=O)[C@H](OC(C)=O)C(=C1C)C2(C)C)[C@@H](O)C[C@H]1OC[C@@]31OC(C)=O)[C@@H](NC(=O)c1ccccc1)c1ccccc1` (stereo partly drawn) [DHA-paclitaxel], the “activity as intact conjugate” value in the data set on microtubule assembly was “inactive as intact conjugates”.

Regarding `Nc1ncnc2c1ncn2CCOCP(=O)(O)OP(=O)(O)OP(=O)(O)O` [PMEApp], the Ki/Km is 0.60 in data set [1] and 0.01 in [3]. In [2], the intracellular half-life was 16 to 18 h.
